Measurements from patent publication US20260265248A1, “NOVEL PD-L1 INHIBITORS” (AFFIRMA BIOTECH S. L., priority 2023, published 2026).

These molecules were tested against T1, PD-1/PD-L1 (Homo sapiens, UniProt Q9NZQ7) (assay: PD1-PDL1 HTRF assay). Conditions: PD-1/PD-L1 homogenous time-resolved fluorescence (HTRF) binding assay; Tag1-PDL1 5 nM, Tag2-PD1 50 nM.
T1 construct: purchased CisBio
How it was run: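 Compound (8 concentrations) was preincubated 15 min at room temperature with Tag1-PD-L1 and Tag2-PD-1, added as 5 nM and 50 nM solutions. Eu-labelled anti-Tag1 and XL665-labelled anti-Tag2 were then added for 1 h, and the 665/620 nm ratio (×10^4; excitation 320 nm) was fitted to the Hill equation for IC50.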

T1 sequence (Q9NZQ7 19-238 limits assumed): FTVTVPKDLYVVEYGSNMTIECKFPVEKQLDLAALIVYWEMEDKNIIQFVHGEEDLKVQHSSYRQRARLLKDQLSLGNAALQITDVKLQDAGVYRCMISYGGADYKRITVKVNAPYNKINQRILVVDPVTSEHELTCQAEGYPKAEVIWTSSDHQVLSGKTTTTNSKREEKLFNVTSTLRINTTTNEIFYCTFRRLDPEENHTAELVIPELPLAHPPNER

| Compound | IC50 |
| --- | --- |
| Cc1c(Nc2nccc3cc(CNCCO)cnc23)cccc1-c1cccc(-c2ccn3c(-c4ccc(CNCCO)cc4)nnc3c2)c1C [Example 84, 2-((4-(7-(3′-((3-(((2-hydroxyethyl)amino)methyl)-1,7-naphthyridin-8-yl)amino)-2,2′-dimethyl-[1,1′-biphenyl]-3-yl)-[1,2,4]triazolo[4,3-a]pyridin-3-yl)benzyl)amino)ethan-1-ol] | ≤ 10 nM |
| Cc1c(-c2ccc(CNCCO)cc2)cccc1-c1cccc(-c2ccn3c(NCCO)nnc3c2)c1C [Example 85, 2-(((3″-(3-((2-hydroxyethyl)amino)-[1,2,4]triazolo[4,3-a]pyridin-7-yl)-2′,2″-dimethyl-[1,1′:3′,1″-terphenyl]-4-yl)methyl)amino)ethan-1-ol] | 100 to 1000 nM |
| Cc1c(-c2ccc(CNCCO)cc2)cccc1-c1cccc(-c2ccn3c(CNC[C@@H]4CCC(=O)N4)nnc3c2)c1C [Example 86, (S)-5-((((7-(4″-(((2-hydroxyethyl)amino)methyl)-2,2′-dimethyl-[1,1′:3′,1″-terphenyl]-3-yl)-[1,2,4]triazolo[4,3-a]pyridin-3-yl)methyl)amino)methyl)pyrrolidin-2-one] | 10 to 100 nM |
| Cc1c(-c2ccc(CNCCO)cc2)cccc1-c1cccc(-c2ccn3c(CN4CC[C@@H](C(=O)O)C4)nnc3c2)c1C [Example 87, (R)-1-((7-(4″-(((2-hydroxyethyl)amino)methyl)-2,2′-dimethyl-[1,1′:3′,1″-terphenyl]-3-yl)-[1,2,4]triazolo[4,3-a]pyridin-3-yl)methyl)pyrrolidine-3-carboxylic acid] | 10 to 100 nM |
| Cc1c(-c2ccc(CNCCO)cc2)cccc1-c1cccc(-c2ccn3c(CN4CCC[C@@H]4C(=O)O)nnc3c2)c1C [Example 88, ((7-(4″-(((2-hydroxyethyl)amino)methyl)-2,2′-dimethyl-[1,1′:3′,1″-terphenyl]-3-yl)-[1,2,4]triazolo[4,3-α]pyridin-3-yl)methyl)-D-proline] | 10 to 100 nM |
| Cc1c(-c2ccn3c(CNCCO)nnc3c2)cccc1-c1cccc(-c2ccn3c(CNCCO)nnc3c2)c1C [Example 89, 2,2′-((((2,2′-dimethyl-[1,1′-biphenyl]-3,3′-diyl)bis([1,2,4]triazolo[4,3-a]pyridine-7,3-diyl))bis(methylene))bis(azanediyl))bis(ethan-1-ol)] | 100 to 1000 nM |
| Cc1c(-c2ccc(CNC[C@@H]3CCC(=O)N3)cc2)cccc1-c1cccc(-c2ccn3c(CNC[C@@H]4CCC(=O)N4)nnc3c2)c1C [Example 90, (S)-5-((((2′,2″-dimethyl-3″-(3-(((((S)-5-oxopyrrolidin-2-yl)methyl)amino)methyl)-[1,2,4]triazolo[4,3-a]pyridin-7-yl)-[1,1′:3′,1″-terphenyl]-4-yl)methyl)amino)methyl)pyrrolidin-2-one] | ≤ 10 nM |
| Cc1c(-c2ccc(CNCCO)cc2)cccc1-c1cccc(-c2ccn3c(CNCCO)nnc3c2)c1C [Example 91, 2-(((7-(4″-(((2-hydroxyethyl)amino)methyl)-2,2′-dimethyl-[1,1′:3′,1″-terphenyl]-3-yl)-[1,2,4]triazolo[4,3-α]pyridin-3-yl)methyl)amino)ethan-1-ol] | 10 to 100 nM |
| Cc1c(NC(=O)c2ccc(CNCCO)cn2)cccc1-c1cccc(-c2ccn3c(CNCCO)nnc3c2)c1C [Example 92, 5-(((2-hydroxyethyl)amino)methyl)-N-(3′-(3-(((2-hydroxyethyl)amino)methyl)-[1,2,4]triazolo[4,3-a]pyridin-7-yl)-2,2′-dimethyl-[1,1′-biphenyl]-3-yl)picolinamide] | ≤ 10 nM |
| Cc1c(NC(=O)c2ccc(CNCCO)cc2)cccc1-c1cccc(-c2ccn3c(CNCCO)nnc3c2)c1C [Example 93, 4-(((2-hydroxyethyl)amino)methyl)-N-(3′-(3-(((2-hydroxyethyl)amino)methyl)-[1,2,4]triazolo[4,3-α]pyridin-7-yl)-2,2′-dimethyl-[1,1′-biphenyl]-3-yl)benzamide] | 100 to 1000 nM |
| COc1nc(-c2cccc(-c3cccc(-c4ccc5nnc(CNC[C@@H]6CCC(=O)N6)n5c4)c3C)c2C)cnc1CNC[C@@H]1CCC(=O)N1 [Example 94, (S)-5-((((5-(2,2′-dimethyl-3′-(3-(((((S)-5-oxopyrrolidin-2-yl)methyl)amino)methyl)-[1,2,4]triazolo[4,3-a]pyridin-6-yl)-[1,1′-biphenyl]-3-yl)-3-methoxypyrazin-2-yl)methyl)amino)methyl)pyrrolidin-2-one] | ≤ 10 nM |
| Cc1c(NC(=O)c2ccc(CNCCO)cn2)cccc1-c1cccc(-c2ccn3c(CNC[C@@H]4CCC(=O)N4)nnc3c2)c1C [Example 95, (S)—N-(2,2′-dimethyl-3′-(3-((((5-oxopyrrolidin-2-yl)methyl)amino)methyl)-[1,2,4]triazolo[4,3-a]pyridin-7-yl)-[1,1′-biphenyl]-3-yl)-5-(((2-hydroxyethyl)amino)methyl)picolinamide] | ≤ 10 nM |
| OCCNCc1ccc(-c2cccc(-c3cccc(-c4ccn5c(CNCCO)nnc5c4)c3Cl)c2Cl)cc1 [Example 96, 2-(((2′,2″-dichloro-3″-(3-(((2-hydroxyethyl)amino)methyl)-[1,2,4]triazolo[4,3-a]pyridin-7-yl)-[1,1′:3′,1″-terphenyl]-4-yl)methyl)amino)ethan-1-ol] | ≤ 10 nM |
| O=C1CC[C@@H](CNCc2ccc(-c3cccc(-c4cccc(-c5ccn6c(CNC[C@@H]7CCC(=O)N7)nnc6c5)c4Cl)c3Cl)cc2)N1 [Example 97, (S)-5-((((21,2″-dichloro-3″-(3-(((((S)-5-oxopyrrolidin-2-yl)methyl)amino)methyl)-[1,2,4]triazolo[4,3-α]pyridin-7-yl)-[1,1′:3′,1″-terphenyl]-4-yl)methyl)amino)methyl)pyrrolidin-2-one] | ≤ 10 nM |
| Cc1c(-c2ccc(CNCCO)cc2)cccc1-c1cccc(-c2ccn3nc(CNCCO)nc3c2)c1C [Example 98, 2-(((7-(4″-(((2-hydroxyethyl)amino)methyl)-2,2′-dimethyl-[1,1′:3′,1″-terphenyl]-3-yl)-[1,2,4]triazolo[1,5-a]pyridin-2-yl)methyl)amino)ethan-1-ol] | 10 to 100 nM |
| Cc1c(-c2ccc(CNC[C@@H]3CCC(=O)N3)cc2)cccc1-c1cccc(-c2ccn3nc(CNC[C@@H]4CCC(=O)N4)nc3c2)c1C [Example 99, (S)-5-((((21,2″-dimethyl-3″-(2-(((((S)-5-oxopyrrolidin-2-yl)methyl)amino)methyl)-[1,2,4]triazolo[1,5-a]pyridin-7-yl)-[1,1′:3′,1″-terphenyl]-4-yl)methyl)amino)methyl)pyrrolidin-2-one] | ≤ 10 nM |
| Cc1c(NC(=O)c2ccc(CNCCO)cn2)cccc1-c1cccc(-c2ccn3nc(CNCCO)nc3c2)c1C [Example 100, 5-(((2-hydroxyethyl)amino)methyl)-N-(3′-(2-(((2-hydroxyethyl)amino)methyl)-[1,2,4]triazolo[1,5-a]pyridin-7-yl)-2,2′-dimethyl-[1,1′-biphenyl]-3-yl)picolinamide] | ≤ 10 nM |
| Cc1c(NC(=O)c2ccc(CNCCO)cc2)cccc1-c1cccc(-c2ccn3nc(CNCCO)nc3c2)c1C [Example 101, 4-(((2-hydroxyethyl)amino)methyl)-N-(3′-(2-(((2-hydroxyethyl)amino)methyl)-[1,2,4]triazolo[1,5-a]pyridin-7-yl)-2,2′-dimethyl-[1,1′-biphenyl]-3-yl)benzamide] | ≤ 10 nM |
